Measured values taken from patent US5606061A, “Thioformamide derivatives” (Eisai Co., Ltd., priority 1991, dated 1997).
Like-named read-outs stand apart in the source and are kept apart here.

Experiments:
[1] = tested on: rat aorta; assay: Vasohypotonic activity on rat aorta specimen (inhibition of KCl-induced tension); type: cell-based, rat (SD); conditions: rat aorta spiral specimen, 20 mM KCl, 30° C., KCl tension = 100%
Procedure: (1) Vasohypotonic activity on rat aorta specimen
The compounds of the present invention were examined for vasohypotonic activity by the use of the aorta extirpated from a rat.
A pectoral aorta was speedily extirpated from an SD male rat having a weight of 250 to 400 g and a spiral specimen was prepared from the aorta. This specimen was vertically suspended in the Organbath which was filled with the Krebs-Henseleit solution at 30° C. and through which a gas mixture comprising 95% of oxygen and 5% of carbon dioxide was passed. The change in the tension of the specimen was isotonically determined under a load of 1 g.
After the tension of the specimen has been stabilized, 20 mM of KCl was added to the bath. After the generated tension had been stabilized, a test compound was cumulatively added to the Organbath to determine the relaxation.
The extent of the relaxation, i.e., the inhibitory activity against the generation of tension was determined by taking the tension generated by the addition of KCl as 100% to calculate the IC50 value.

[2] = tested on: right ventricular papillary muscle of guinea pig; assay: Activity on the action potential duration of the right ventricular papillary muscle of guinea pig (potassium channel activating effect); type: cell-based, guinea pig (Hartley); conditions: Cavia porcellus, 0.5 h, 1 Hz, 36 ±0.5° C., 30 minutes each concentration, read-out: Concn. at which APD90 is shortened to 50% of the initial one IC50 (converted)
Text: (2) Activity on the action potential duration of the right ventricular papillary muscle of guinea pig
The compounds of the present invention were examined for the potassium channel activating effect by the use of the right ventricular papillary muscle of a guinea pig.
An action potential duration at 90% repolarization (hereinafter abbreviated to "APD90 ") reflects an outward potassium current. A compound having the potassium channel activating effect can activate the outward potassium channel to shorten the APD90 (see Proc. Natl. Acad. Sci., USA, 85, 8860 to 8864 (1988)).
A Hartley male guinea pig having a weight of 300 to 500 g was used. This guinea pig was killed by bleeding and the papillary muscle was extirpated from the right ventricle of the guinea pig and fixed in the Organbath. The surface of the papillary muscle was washed with Tyrode's solution at 36 ±0.5° C. through which an oxygen/carbon dioxide mixture was passed. The resulting specimen was stimulated by applying a rectangular wave pulse of 1 Hz to record the action potential by the glass microelectrode method.
After the action potential had been stabilized, the specimen was washed with Tyrode's solutions containing a test compound each for 30 minutes to determine the dose-response curve.

[3] = tested on: anesthetized thoracotomized dog; assay: Hypotensive activity and coronary bloodflow increasing activity on anesthetized thoracotomized dog; type: in vivo, dog (crossbred); conditions: Canis lupus familiaris, intravenous, 3 μg/kg
Text: (3) Hypotensive activity and coronary bloodflow increasing activity on anesthetized thoracotomized dog
The compounds of the present invention were examined for hypotensive activity and coronary bloodflow increasing activity by the use of an anesthetized thoracotomized dog.
A crossbred adult dog was used. This dog was thoracotomized under inhalation anesthesia with an enflurane/laughing gas. The probe of an electromagnetic flowmeter was set on the ramus circumflexes of the left coronary artery to determine the coronary bloodflow. The arterial pressure was determined by making the tip of a catheter-tipped pressure transducer indwell in the arcus aortae.
Each test compound was intravenously administered in a dose of 3 μg/kg through a catheter inserted into the femoral vein.
The hypotensive activity and coronary bloodflow increasing activity of each test compound are given in Table 1 as the changes of the blood pressure and coronary bloodflow based on those before the administration of the compound.

[4] = tested on: spontaneously hypertensive rats (SHR); assay: Hypotensive activity on spontaneously hypertensive rat in waking state; type: in vivo; conditions: oral, 2 hours after administration, before administration = 100, control 93.3 ± 4.0, read-out: Blood pressure
Procedure: (4) Hypotensive activity on spontaneously hypertensive rat in waking state
The compounds of the present invention were examined for hypotensive activity by orally administrating them to spontaneously hypertensive rats (SHR).
The systolic pressure of a spontaneously hypertensive male rat (weight: 260 to 360 g) which had been fasted for 12 hours was bloodlessly determined by the tail cuff method. Each drug was suspended in a 0.5% aqueous solution of methylcellulose and orally administered in a dose of 1 mg/kg. only the solvent was administered to control rats.
The blood pressures of the rats after 2 hours from the administration are given in the Table 1 with the blood pressures before the administration being taking as 100.

[5] = change of blood pressure vs before administration, read-out: Change (%) hypotensive activity
[6] = change of coronary bloodflow vs before administration, read-out: Change (%) coronary blood-flow increasing activity

Question: Which results are given for CNC(=S)C1(c2ccc3nccn3c2)CCCCC1=O (single isomer, unassigned; (-)) [Compound 1, (-)-1-(imidazo[1,2-a]pyridin-6-yl)-N-methyl-2-oxocyclohexanecarbothioamide]?
Answer: IC50 [1]: 18.6 nM; IC50 [2]: 2630 nM; change in vivo at 0.003 mg/kg [3, 5]: -22.1%; change in vivo at 0.003 mg/kg [3, 6]: 78.6%; response vs control in vivo at 1 mg/kg [4]: 51.6 ± 5.1%

Question: Which IC50 [1] does the source give for CNC(=S)C1(c2ccc3nc(C)cn3c2)CCCCC1=O (single isomer, unassigned; (-)) [Compound 3, (-)-N-methyl-1-(2-methylimidazo-[1,2-a]pyridin-6-yl)-2-oxocyclohexanecarbothioamide] here?
Answer: 6.17 nM

Question: And the IC50 [2]?
Answer: 759 nM

Question: And the change in vivo at 0.003 mg/kg [3, 5]?
Answer: -27%

Question: What about the change in vivo at 0.003 mg/kg [3, 6] of the same molecule?
Answer: 198%

Question: And the response vs control in vivo at 1 mg/kg [4]?
Answer: 45.9 ± 3.9%

Question: CNC(=S)C1(c2ccc3nccn3c2)CCCCC1OC(=O)c1ccccc1 (single isomer, unassigned; (-)) [Compound 4, (-)-2-benzoyloxy-1-(imidazo[1,2-a]pyridin-6-yl)-N-methylcyclohexanecarbothioamide] was tested. Which IC50 [1] did it give?
Answer: 0.575 nM

Question: And the change in vivo at 0.003 mg/kg [3, 5]?
Answer: -26.6%

Question: And the change in vivo at 0.003 mg/kg [3, 6]?
Answer: 312%

Question: Which results are given for CNC(=S)C1(c2ccc3nc(C(F)(F)F)cn3c2)CCCCC1=O (single isomer, unassigned; (-)) [Compound 12, (-)-1-(2-trifluoromethylimidazo-[1,2-a]pyridin-6-yl)-N-methyl-2-oxocyclohexanecarbothioamide]?
Answer: IC50 [1]: 20 nM; change in vivo at 0.003 mg/kg [3, 5]: -16.5%; change in vivo at 0.003 mg/kg [3, 6]: 86.5%

Question: CNC(=S)C1(c2ccc3nc(C)cn3c2)CCCC[S+]1[O-] (single isomer, unassigned; (-)) [Compound 13, (-)-2-(2-methylimidazo-[1,2-a]pyridin-6-yl)-N-methyltetrahydrothiopyran-2-carbonthioamide 1-oxide] was tested. Which IC50 [1] did it give?
Answer: 20 nM

Question: And the change in vivo at 0.003 mg/kg [3, 5]?
Answer: -30%

Question: And the change in vivo at 0.003 mg/kg [3, 6]?
Answer: 228%

Question: What does the source list for CNC(=S)C1(c2ccc3nccn3c2)CCCCC1OCc1ccccc1 (stereo not drawn) [Compound 5, 2-benzyloxy-1-(imidazo[1,2-a]pyridin-6-yl)-N-methylcyclohexanecarbothioamide]?
Answer: IC50 [1]: 0.355 nM; IC50 [2]: 8.91 nM; change in vivo at 0.003 mg/kg [3, 5]: -8.1%; change in vivo at 0.003 mg/kg [3, 6]: 196%

Question: What does the source list for CNC(=S)C1(c2ccc3nccn3c2)CCCCC1=NOCc1ccccc1 (stereo not drawn) [Compound 6, anti-2-benzyloxyimino-1-(imidazo[1,2-a]pyridin-6-yl)-N-methylcyclohexanecarbothioamide]?
Answer: IC50 [1]: 1.91 nM; IC50 [2]: 204 nM; change in vivo at 0.003 mg/kg [3, 5]: -25.2%; change in vivo at 0.003 mg/kg [3, 6]: 67.5%; response vs control in vivo at 1 mg/kg [4]: 59.3 ± 6.9%

Question: With CNC(=S)C1(c2ccc3nccn3c2)CCCCC1NCc1ccccc1 (stereo not drawn) [Compound 7] as the molecule, how does the IC50 [1] read?
Answer: 1.78 nM

Question: What about the change in vivo at 0.003 mg/kg [3, 5] of the same molecule?
Answer: -7.3%

Question: What about the change in vivo at 0.003 mg/kg [3, 6] of the same molecule?
Answer: 22.8%

Question: And the response vs control in vivo at 1 mg/kg [4]?
Answer: 87.9 ± 0.1%

Question: Which results are given for CNC(=S)C1(c2ccc3nccn3c2)CCCC[S+]1[O-] (stereo not drawn) [Compound 8, 2-(imidazo[1,2-a]pyridin-6-yl)-N-methyltetrahydrothiopyran-2-carbothioamide1-oxide]?
Answer: IC50 [1]: 55 nM; change in vivo at 0.003 mg/kg [3, 5]: -10.5%; change in vivo at 0.003 mg/kg [3, 6]: 70.7%; response vs control in vivo at 1 mg/kg [4]: 62 ± 6.5%

Question: What does the source list for CNC(=S)C1(n2cnc([N+](=O)[O-])c2)CCCCC1OC(=O)c1ccccc1 (stereo not drawn) [Compound 9, 2-benzoyloxy-N-methyl-1-(4-nitroimidazol-1yl)cyclohexanecarbothioamide]?
Answer: IC50 [1]: 11 nM; IC50 [2]: 479 nM; change in vivo at 0.003 mg/kg [3, 5]: -14.9%; change in vivo at 0.003 mg/kg [3, 6]: 131%; response vs control in vivo at 1 mg/kg [4]: 62.4 ± 3.7%

Question: CNC(=S)C1(n2cnc([N+](=O)[O-])c2)CCCCC1OCc1ccccc1 (stereo not drawn) [Compound 10, 2-benzyloxy-N-methyl-1-(4-nitroimidazol-1yl)cyclohexanecarbothioamide] was tested. Which IC50 [1] did it give?
Answer: 0.49 nM

Question: What about the IC50 [2] of the same molecule?
Answer: 51.3 nM

Question: What about the change in vivo at 0.003 mg/kg [3, 5] of the same molecule?
Answer: -16.3%

Question: And the change in vivo at 0.003 mg/kg [3, 6]?
Answer: 169%

Question: And the response vs control in vivo at 1 mg/kg [4]?
Answer: 58.8 ± 5.7%

Question: For CNC(=S)C1(n2cnc([N+](=O)[O-])c2)CCCCC1=NOCc1ccccc1 (stereo not drawn) [Compound 11, anti-2-benzyloxyimino-N-methyl-1-(4-nitroimidazol-1-yl)cyclohexanecarbothioamide], which IC50 [1] is on record?
Answer: 0.55 nM

Question: What about the IC50 [2] of the same molecule?
Answer: 148 nM

Question: And the change in vivo at 0.003 mg/kg [3, 5]?
Answer: -28.5%

Question: And the change in vivo at 0.003 mg/kg [3, 6]?
Answer: 152%

Question: What about the response vs control in vivo at 1 mg/kg [4] of the same molecule?
Answer: 72.1 ± 4.5%
